Series [1] has as its system male Wistar rats. As to the kind of experiment: Experiment 3: weight loss, leukocytosis and neutrophilia in rats, roflumilast with or without SC-560 or lumiracoxib. Type of series: in vivo, rat.
The test system of series [2] is male Wistar rats. Put plainly: Experiment 4: diarrhoea and mesentery histopathology in rats, roflumilast with or without SC-560 or lumiracoxib. Type of series: in vivo, rat. To be noted: p.o. four days, roflumilast 10 mg/kg at 1300, SC-560 or lumiracoxib 2 mg/kg at 0800 and 1700, 95 hours after t0; for Diarrhoea: animals affected out of animals; for Mesentery: Proliferation of fibroblasts / Mesentery: multifocal perivascular mononuclear infiltration (=inflammation parameter): animals affected out of animals examined.
Description: (§1) For pharmacokinetic analysis (determining the plasma levels of the substances) on day 4 one rat from each group was used; these rats were no longer available for other parameters under investigation.
(§2) At the end of the experiment (95 hours after t0 (=the time of the first administration on day 1, 0800 hours)) the rats from the individual groups were examined phenotypically and histopathologically for the presence of multifocal perivascular mononuclear infiltration (=inflammation parameter) in the mesentery and for the proliferation of fibroblasts in the mesentery. In addition, the occurrence of diarrhoea in the rats from the different groups was noted.

For series [3], the system named is male Wistar rats. Put plainly: Experiment 1: weight loss, leukocytosis and neutrophilia in rats, roflumilast with or without diclofenac.
Description: For pharmacokinetic analysis (determining the plasma levels of the substances) on day 4 one rate from each group was used; these rats were no longer available for other parameters under investigation.
The average±standard deviation of the body weights at time t0 was 355±17 g.
At the end of the experiment (95 hours after t0 (=the time of the first administration on day 1, 0800)) the proportion of white blood cells (×1000 cells/μl blood, FIG. 1B, left-hand Figure) and the proportion of neutrophils (in % of white blood cells, FIG. 1B, right-hand Figure) were determined from the blood of 4 or 5 of the rats from the individual groups.
The subject of series [4] is male Wistar rats. Put plainly: Experiment 2: diarrhoea and mesentery histopathology in rats, roflumilast with or without diclofenac. Particulars: roflumilast 10 mg/kg p.o. daily; six rats per group; between day 4 and day 5.
Description: as §1, §2

The results in this text go back to patent publication US8759326B2, “Drug combinations containing PDE4 inhibitors and NSAIDs” (Boehringer Ingelheim International GmbH, priority 2009, dated 2014).

As for `COc1ccc(-n2nc(C(F)(F)F)cc2-c2ccc(Cl)cc2)cc1` [SC-560], the “protective effect on roflumilast-mediated weight loss, leukocytosis and neutrophilia” value in the series on male Wistar rats [1] (SC-560 2 mg/kg p.o. at 0800 and 1700 co-administered with roflumilast 10 mg/kg, four days) was “absolutely no protective effect”. The Diarrhoea in the series with male Wistar rats [2] was 0/6.
Consider `O=C(O)Cc1ccccc1Nc1c(Cl)cccc1Cl` [diclofenac], for which, in the series on male Wistar rats [3] (diclofenac 1 mg/kg p.o. at 0800 and 1700, four days), the “parameters measured after the administration of the NSAID alone, compared with control” value is given as “very similar to the control groups”.
With `Cc1ccc(Nc2c(F)cccc2Cl)c(CC(=O)O)c1` [lumiracoxib], the “parameters measured after the administration of the NSAID alone, compared with control” value in the series with male Wistar rats [1] (2 mg/kg p.o. at 0800 and 1700, four days) is on record as “very similar to the control groups”. For the same compound, in the series with male Wistar rats [2], the “Mesentery: Proliferation of fibroblasts” value is listed as 0/5, the “Mesentery: multifocal perivascular mononuclear infiltration (=inflammation parameter)” value was 0/5 and the Diarrhoea is 0/6.
For `O=C(Nc1c(Cl)cncc1Cl)c1ccc(OC(F)F)c(OCC2CC2)c1` [roflumilast], the death of rats result with male Wistar rats [4] is “one rat”. For the same compound, the “PDE4 inhibitor-mediated side effects such as weight loss, leukocytosis, neutrophilia and diarrhoea” value in the series with male Wistar rats [1] (FIG. 2A, 2B, p.o. four days, roflumilast 10 mg/kg, lumiracoxib 2 mg/kg twice daily) was “observed”. Moreover, in the series with male Wistar rats [2], the “Mesentery: Proliferation of fibroblasts” value is 5/5, the “Mesentery: multifocal perivascular mononuclear infiltration (=inflammation parameter)” value is 5/5 and the Diarrhoea was 2/6. Moreover, the death of rats entry with male Wistar rats [3] (roflumilast 10 mg/kg p.o. daily, six rats per group, between day 4 and day 5) is listed as “one rat”.
